Like-named read-outs stand apart in the source and are kept apart here.
How the values were obtained:
[1] = test system: Myzus persicae; assay: Myzus persicae - Test (MYZUPE spray application); assay type: in vivo
Source text: Myzus persicae—Test; (MYZUPE Spray Application)
Chinese cabbage (Brassica pekinesis) leaf—disks infected with all instars of the green peach aphid (Myzus persicae), are sprayed with a preparation of the active ingredient at the desired concentration.
100% means that all aphids have been killed; 0% means that none of the aphids have been killed.

[2] = test system: Tetranychus urticae; assay: Tetranychus urticae - Test; OP-resistant (TETRUR spray application); assay type: in vivo; conditions: for mortality at 20 g/ha / mortality at 100 g/ha / mortality at 200 g/ha / mortality at 150 g/ha / mortality at 500 g/ha / mortality at 4 g/ha: Tetranychus urticae
Source text: Tetranychus urticae—Test; OP-Resistant (TETRUR Spray Application)
French beans (Phaseolus vulgaris) which are heavily infested with all stages of the two spotted spidermite (Tetranychus urticae), are sprayed with a preparation of the active ingredient at the desired concentration.

[3] = test system: Phaedon cochleariae; assay: Phaedon cochleariae Larvae - Test (PHAECO spray application); assay type: in vivo
Source text: Phaedon cochleariae—Test; (PHAECO Spray Application)
Solvent: 78 parts by weight of acetone • 1.5 parts by weight of N,N-dimethylformamide Emulsifier: 0.5 parts by weight of alkylarylpolyglycolether
Once dry, the leaf discs are infested with mustard beetle larvae (Phaedon cochleariae).

[4] = test system: Spodoptera frugiperda; assay: whole plant or invertebrate
Protocol: Spodoptera frugiperda—Test (SPODFR Spray Application)
Solvent: 78.0 parts by weight acetone • 1.5 parts by weight N,N-dimethylformamide Emulsifier: 0.5 parts by weight alkylarylpolyglycolether
Maize (Zea mais) leaf sections are sprayed with a preparation of the active ingredient of the desired concentration. Once dry, the leaf sections are infested with larvae of the fall armyworm (Spodoptera frugiperda).
After the specified period of time, the mortality in % is determined. 100% means that all caterpillars have been killed and 0% means that none of the caterpillars have been killed.

[5] = Myzus persicae, 144 h, read-out: Mortality in % after 6 days obs.
[6] = 48 h, read-out: Mortality in % after 2 days obs.
[7] = Phaedon cochleariae, 144 h, read-out: Mortality in % after 6 days obs.
[8] = Spodoptera frugiperda, 144 h, read-out: Mortality in % after 6 days obs.
[9] = Myzus persicae, 24 h, read-out: Mortality in % after 1 day obs.
[10] = 144 h, read-out: Mortality in % after 6 days obs.
[11] = Phaedon cochleariae, 48 h, read-out: Mortality in % after 2 days obs.
[12] = Spodoptera frugiperda, 48 h, read-out: Mortality in % after 2 days obs.
[13] = 100 g/ha, single active ingredient, 6 days

Cc1c(F)c(F)c(COC(=O)[C@@H]2[C@H](/C=C(\Cl)C(F)(F)F)C2(C)C)c(F)c1F (racemic) [B-3A.43, Tefluthrin]
0%: mortality at 4 g/ha [1, 5] | mortality at 20 g/ha [2, 6] | mortality at 20 g/ha [3, 7] | mortality at 0.8 g/ha [4, 8] | mortality at 4 g/ha [4, 8]

CC(C)c1ccccc1CN(C(=O)c1c(C(F)F)nn(C)c1F)C1CC1 [A-1, N-cyclopropyl-3-(difluoromethyl)-5-fluoro-N-(2-isopropylbenzyl)-1-methyl-1H-pyrazole-4-carboxamide]
0%: mortality at 100 g/ha [1, 9] | mortality at 100 g/ha [1, 5] | mortality at 100 g/ha [2, 6] | mortality at 100 g/ha [2, 10] | mortality at 100 g/ha [3, 11] | mortality at 100 g/ha [3, 7] | mortality at 100 g/ha [4, 12] | mortality at 100 g/ha [4, 8]

CC(C)c1ccc(Cl)cc1CN(C(=O)c1c(C(F)F)nn(C)c1F)C1CC1 [A-5, N-(5-chloro-2-isopropylbenzyl)-N-cyclopropyl-3-(difluoromethyl)-5-fluoro-1-methyl-1H-pyrazole-4-carboxamide]
0%: mortality at 100 g/ha ([1]; Myzus persicae, 24 h, 100 g/ha, read-out: Mortality in % after 1 day obs.) | mortality at 200 g/ha ([1]; Myzus persicae, 24 h, 200 g/ha, read-out: Mortality in % after 1 day obs.) | mortality at 100 g/ha ([1]; Myzus persicae, 144 h, 100 g/ha, read-out: Mortality in % after 6 days obs.) | mortality at 200 g/ha ([1]; Myzus persicae, 144 h, 200 g/ha, read-out: Mortality in % after 6 days obs.) | mortality at 200 g/ha ([2]; 144 h, 200 g/ha, single active ingredient, 6 days, read-out: Mortality in % after 6 days obs.) | mortality at 100 g/ha ([3]; Phaedon cochleariae, 48 h, 100 g/ha, read-out: Mortality in % after 2 days obs.) | mortality at 150 g/ha ([3]; Phaedon cochleariae, 48 h, 150 g/ha, read-out: Mortality in % after 2 days obs.) | mortality at 100 g/ha ([3]; Phaedon cochleariae, 144 h, 100 g/ha, read-out: Mortality in % after 6 days obs.) | mortality at 200 g/ha ([3]; Phaedon cochleariae, 144 h, 200 g/ha, read-out: Mortality in % after 6 days obs.) | mortality at 100 g/ha [4, 12] | mortality at 200 g/ha [4, 12] | mortality at 100 g/ha [4, 8] | mortality at 200 g/ha [4, 8]

CC(C)c1ccc(F)cc1CN(C(=O)c1c(C(F)F)nn(C)c1F)C1CC1 [A-7, N-cyclopropyl-3-(difluoromethyl)-5-fluoro-N-(5-fluoro-2-isopropylbenzyl)-1-methyl-1H-pyrazole-4-carboxamide]
0%: mortality at 100 g/ha [1, 9] | mortality at 200 g/ha [1, 9] | mortality at 100 g/ha [1, 5] | mortality at 200 g/ha [1, 5] | mortality at 100 g/ha [2, 6] | mortality at 150 g/ha [2, 6] | mortality at 200 g/ha [2, 6] | mortality at 100 g/ha [3, 11] | mortality at 150 g/ha [3, 11] | mortality at 100 g/ha [3, 7] | mortality at 200 g/ha [3, 7] | mortality at 100 g/ha [4, 12] | mortality at 150 g/ha [4, 12] | mortality at 100 g/ha [4, 8]

Cc1ccc(C(C)C)c(CN(C(=O)c2c(C(F)F)nn(C)c2F)C2CC2)c1 [A-12, N-cyclopropyl-3-(difluoromethyl)-5-fluoro-N-(2-isopropyl-5-methylbenzyl)-1-methyl-1H-pyrazole-4-carboxamide]
0%: mortality at 100 g/ha [1, 9] | mortality at 200 g/ha [1, 9] | mortality at 100 g/ha [1, 5] | mortality at 200 g/ha [1, 5] | mortality at 100 g/ha [2, 6] | mortality at 150 g/ha [2, 6] | mortality at 100 g/ha [2, 10] | mortality at 100 g/ha [3, 11] | mortality at 100 g/ha [3, 7] | mortality at 200 g/ha [3, 7] | mortality at 100 g/ha [4, 12] | mortality at 200 g/ha [4, 12] | mortality at 100 g/ha [4, 8]

Cn1nc(C(F)F)c(C(=O)N(Cc2cc(Cl)ccc2C(F)(F)F)C2CC2)c1F [A-15, N-[5-chloro-2-(trifluoromethyl)benzyl]-N-cyclopropyl-3-(difluoromethyl)-5-fluoro-1-methyl-1H-pyrazole-4-carboxamide]
0%: mortality at 500 g/ha [1, 9] | mortality at 500 g/ha [1, 5] | mortality at 500 g/ha [2, 6] | mortality at 500 g/ha [2, 10] | mortality at 500 g/ha [3, 11] | mortality at 500 g/ha [3, 7] | mortality at 500 g/ha [4, 8]

Cn1nc(C(F)F)c(C(=O)N(Cc2c(Cl)cccc2C(F)(F)F)C2CC2)c1F [A-17, N-[2-chloro-6-(trifluoromethyl)benzyl]-N-cyclopropyl-3-(difluoromethyl)-5-fluoro-1-methyl-1H-pyrazole-4-carboxamide]
0%: mortality at 100 g/ha [1, 9] | mortality at 100 g/ha [1, 5] | mortality at 100 g/ha [2, 6] | mortality at 100 g/ha [2, 10] | mortality at 100 g/ha [3, 11] | mortality at 100 g/ha [3, 7] | mortality at 100 g/ha [4, 12] | mortality at 100 g/ha [4, 8]

Cn1nc(C(F)F)c(C(=O)N(Cc2c(C(F)(F)F)ccc(Cl)c2F)C2CC2)c1F [A-18, N-[3-chloro-2-fluoro-6-(trifluoromethyl)benzyl]-N-cyclopropyl-3-(difluoromethyl)-5-fluoro-1-methyl-1H-pyrazole-4-carboxamide]
0%: mortality at 500 g/ha [1, 9] | mortality at 500 g/ha [1, 5] | mortality at 500 g/ha [2, 6] | mortality at 500 g/ha [2, 10] | mortality at 500 g/ha [3, 11] | mortality at 500 g/ha [3, 7] | mortality at 500 g/ha [4, 8]

CCOP(=S)(OCC)Oc1nc(Cl)c(Cl)cc1Cl [B-1B.10, Chlorpyrifos]
67%: mortality at 4 g/ha [4, 8]
0%: mortality at 0.8 g/ha [1, 5] | mortality at 20 g/ha [2, 6] | mortality at 4 g/ha [2, 10] | mortality at 20 g/ha [3, 7]

CC1(C)C(C=C(Cl)Cl)C1C(=O)OC(C#N)c1ccc(F)c(Oc2ccccc2)c1 (stereo not drawn) [B-3A.11, β-Cyfluthrin]
67%: Mortality in % after 6 days obs. ([3]; 0.8 g/ha)
0%: Mortality in % after 6 days obs. ([1]; 0.16 g/ha) | Mortality in % after 6 days obs. ([2]; 4 g/ha, single active ingredient, 6 days)
50%: Mortality in % after 6 days obs. ([3]; 0.16 g/ha) | Mortality in % after 6 days obs. ([4]; 0.16 g/ha)
70%: Mortality in % after 1 day obs. ([1]; 0.8 g/ha) | Mortality in % after 6 days obs. ([1]; 0.8 g/ha)

CC1(C)[C@H](C(=O)O[C@H](C#N)c2cccc(Oc3ccccc3)c2)[C@@H]1C=C(Br)Br [B-3A.21, Deltamethrin]
20%: mortality at 4 g/ha [2, 10]
70%: mortality at 0.16 g/ha [1, 5]
0%: mortality at 0.16 g/ha [3, 7] | mortality at 0.16 g/ha [4, 12] | mortality at 0.032 g/ha [4, 8]
80%: mortality at 0.8 g/ha [1, 9]
33%: mortality at 0.8 g/ha [3, 7] | mortality at 0.8 g/ha [4, 8]

CN/C(=N\[N+](=O)[O-])NCc1cnc(Cl)s1 [B-4A.2, Clothianidin]
83%: mortality at 20 g/ha [3, 11]
0%: mortality at 4 g/ha [1, 9] | mortality at 20 g/ha [2, 6] | mortality at 4 g/ha [2, 10] | mortality at 20 g/ha [2, 10] | mortality at 4 g/ha [3, 7] | mortality at 20 g/ha [4, 8]

CNC(=O)c1cc(C#N)cc(C)c1NC(=O)c1cc(Br)nn1-c1ncccc1Cl [B-26.2, Cyantraniliprole (Cyazypyr)]
0%: Mortality in % after 1 day obs. ([1]; 0.8 g/ha) | Mortality in % after 6 days obs. ([2]; 20 g/ha, single active ingredient, 6 days) | Mortality in % after 2 days obs. ([3]; 0.8 g/ha) | Mortality in % after 6 days obs. ([4]; 0.16 g/ha)
67%: Mortality in % after 6 days obs. ([3]; 0.8 g/ha)
70%: Mortality in % after 6 days obs. ([1]; 0.8 g/ha)

O=C1C=C(N(Cc2ccc(Cl)nc2)CC(F)F)CO1 [B-27.16, 4-{[(6-chloropyridin-3-yl)methyl](2,2-difluoroethyl)-amino}furan-2(5H)-one]
50%: mortality at 100 g/ha [3, 11]
0%: mortality at 4 g/ha [1, 9] | mortality at 100 g/ha [2, 6] | mortality at 100 g/ha [2, 10] | mortality at 20 g/ha [3, 7] | mortality at 20 g/ha [4, 8]
80%: mortality at 100 g/ha [1, 9]

Acetamiprid [B-4A.1]
0%: Mortality in % after 2 days obs. ([2]; 20 g/ha) | Mortality in % after 6 days obs. ([3]; 100 g/ha) | Mortality in % after 6 days obs. ([4]; 20 g/ha)
70%: Mortality in % after 1 day obs. ([1]; 0.8 g/ha)
50%: Mortality in % after 2 days obs. ([3]; 20 g/ha)

Fipronil [B-2B.2]
50%: Mortality in % after 6 days obs. ([3]; 0.16 g/ha)
0%: Mortality in % after 6 days obs. ([1]; 20 g/ha) | Mortality in % after 6 days obs. [2, 13]
33%: Mortality in % after 2 days obs. ([3]; 0.8 g/ha)
67%: Mortality in % after 2 days obs. ([3]; 4 g/ha) | Mortality in % after 2 days obs. ([4]; 100 g/ha)

Transfluthrin [B-3A.46]
50%: Mortality in % after 6 days obs. ([4]; 20 g/ha)
0%: Mortality in % after 1 day obs. ([1]; 20 g/ha) | Mortality in % after 6 days obs. ([1]; 20 g/ha) | Mortality in % after 6 days obs. [2, 13] | Mortality in % after 6 days obs. ([3]; 4 g/ha) | Mortality in % after 6 days obs. ([3]; 20 g/ha)
80%: Mortality in % after 1 day obs. ([1]; 100 g/ha)
33%: Mortality in % after 6 days obs. ([4]; 0.8 g/ha) | Mortality in % after 6 days obs. ([4]; 4 g/ha)
67%: Mortality in % after 2 days obs. ([3]; 100 g/ha)
